Results from article PMC7260718, “Novel routes towards bioplastics from plants: elucidation of the methylperillate biosynthesis pathway from Salvia dorisiana trichomes” (Journal of Experimental Botany, 2020).

How the values were obtained:
SdSaS = molecular target: T1, SdSaS (Salvia dorisiana, UniProt A0A6G5RTE6); assay: in vitro terpene synthase assay, GC-MS; assay type: cell-based; details: product sabinene; conditions by reference to earlier study
T1 construct: gene SaS; plastid targeting signal removed, pCDF-duet, E. coli
T1 sequence (A0A6G5RTE6 1-538): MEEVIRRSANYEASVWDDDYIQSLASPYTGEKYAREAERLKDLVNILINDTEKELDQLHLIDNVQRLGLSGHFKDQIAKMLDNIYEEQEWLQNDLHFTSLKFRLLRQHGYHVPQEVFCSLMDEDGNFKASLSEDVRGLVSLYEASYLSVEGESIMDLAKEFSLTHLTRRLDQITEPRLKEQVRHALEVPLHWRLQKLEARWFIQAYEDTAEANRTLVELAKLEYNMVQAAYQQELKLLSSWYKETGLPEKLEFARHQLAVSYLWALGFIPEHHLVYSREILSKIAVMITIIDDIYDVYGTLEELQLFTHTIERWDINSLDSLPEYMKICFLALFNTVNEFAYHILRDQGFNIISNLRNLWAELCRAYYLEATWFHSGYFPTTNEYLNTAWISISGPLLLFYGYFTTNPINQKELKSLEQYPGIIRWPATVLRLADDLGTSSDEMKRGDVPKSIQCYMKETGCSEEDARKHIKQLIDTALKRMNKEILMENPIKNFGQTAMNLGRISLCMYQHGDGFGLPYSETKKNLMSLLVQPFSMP

SdPCS = molecular target: T2, SdPCS (Salvia dorisiana, UniProt A0A6G5RV47); assay: in vitro terpene synthase assay, GC-MS; assay type: cell-based; details: products alpha-pinene and camphene; conditions by reference to earlier study
T2 construct: gene PCS; plastid targeting signal removed, pCDF-duet, E. coli
T2 sequence (A0A6G5RV47 52-589): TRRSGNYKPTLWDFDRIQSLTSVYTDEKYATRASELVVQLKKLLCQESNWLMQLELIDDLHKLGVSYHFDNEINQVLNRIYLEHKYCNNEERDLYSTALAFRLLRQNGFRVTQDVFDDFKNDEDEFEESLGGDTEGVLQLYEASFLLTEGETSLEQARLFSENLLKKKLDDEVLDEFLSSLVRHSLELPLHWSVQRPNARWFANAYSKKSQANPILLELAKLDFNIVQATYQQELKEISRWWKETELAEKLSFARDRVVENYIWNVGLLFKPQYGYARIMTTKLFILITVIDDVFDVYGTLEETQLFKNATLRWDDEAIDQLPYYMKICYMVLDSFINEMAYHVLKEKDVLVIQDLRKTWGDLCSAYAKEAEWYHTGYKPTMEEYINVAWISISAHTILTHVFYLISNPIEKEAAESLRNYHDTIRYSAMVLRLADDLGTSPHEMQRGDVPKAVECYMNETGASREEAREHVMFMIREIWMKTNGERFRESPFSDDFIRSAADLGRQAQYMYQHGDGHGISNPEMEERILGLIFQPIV

SdLiS = molecular target: T3, SdLiS (Salvia dorisiana, UniProt A0A6G5RUG7); assay: in vitro terpene synthase assay, GC-MS; assay type: cell-based; details: product linalool; conditions by reference to earlier study
T3 construct: gene LiS; plastid targeting signal removed, pCDF-duet, E. coli
T3 sequence (A0A6G5RUG7 55-582 limits assumed): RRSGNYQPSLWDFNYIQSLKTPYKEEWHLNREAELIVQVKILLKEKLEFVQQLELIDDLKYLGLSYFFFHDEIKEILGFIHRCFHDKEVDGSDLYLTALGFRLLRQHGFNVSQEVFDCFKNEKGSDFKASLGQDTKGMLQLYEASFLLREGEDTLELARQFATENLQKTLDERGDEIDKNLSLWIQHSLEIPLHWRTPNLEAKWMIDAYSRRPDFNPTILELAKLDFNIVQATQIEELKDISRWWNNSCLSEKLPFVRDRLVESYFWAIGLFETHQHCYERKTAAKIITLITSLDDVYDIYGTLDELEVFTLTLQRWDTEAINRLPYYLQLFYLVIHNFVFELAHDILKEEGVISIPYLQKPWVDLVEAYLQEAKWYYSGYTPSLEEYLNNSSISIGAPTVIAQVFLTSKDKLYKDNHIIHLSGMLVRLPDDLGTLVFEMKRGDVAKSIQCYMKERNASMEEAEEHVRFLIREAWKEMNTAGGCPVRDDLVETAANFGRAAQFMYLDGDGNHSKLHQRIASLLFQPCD

SdEuS = molecular target: T4, SdEuS (Salvia dorisiana, UniProt A0A6G5RUA2); assay: in vitro terpene synthase assay, GC-MS; assay type: cell-based; details: product eucalyptol; conditions by reference to earlier study
T4 construct: gene EuS; plastid targeting signal removed, pCDF-duet, E. coli
T4 sequence (A0A6G5RUA2 55-578): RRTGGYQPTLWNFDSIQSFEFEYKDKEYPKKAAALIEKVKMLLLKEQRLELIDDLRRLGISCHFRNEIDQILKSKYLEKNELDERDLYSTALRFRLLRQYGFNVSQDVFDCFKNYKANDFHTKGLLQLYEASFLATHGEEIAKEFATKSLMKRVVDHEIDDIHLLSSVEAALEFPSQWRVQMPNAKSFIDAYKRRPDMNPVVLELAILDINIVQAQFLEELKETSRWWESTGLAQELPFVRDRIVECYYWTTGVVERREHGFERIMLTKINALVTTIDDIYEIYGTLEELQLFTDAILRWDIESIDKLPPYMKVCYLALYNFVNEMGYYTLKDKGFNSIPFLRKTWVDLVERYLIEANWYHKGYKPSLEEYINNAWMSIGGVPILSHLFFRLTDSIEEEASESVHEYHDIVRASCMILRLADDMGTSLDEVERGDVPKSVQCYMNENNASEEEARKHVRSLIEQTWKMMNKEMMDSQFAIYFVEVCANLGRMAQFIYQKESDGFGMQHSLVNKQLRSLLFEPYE

SdPS = molecular target: T5, SdPS (Salvia dorisiana, UniProt A0A6G5RTD3); assay: in vitro terpene synthase assay, GC-MS; assay type: cell-based; details: product beta-pinene; conditions by reference to earlier study
T5 construct: gene PS; plastid targeting signal removed, pCDF-duet, E. coli
T5 sequence (A0A6G5RTD3 60-600): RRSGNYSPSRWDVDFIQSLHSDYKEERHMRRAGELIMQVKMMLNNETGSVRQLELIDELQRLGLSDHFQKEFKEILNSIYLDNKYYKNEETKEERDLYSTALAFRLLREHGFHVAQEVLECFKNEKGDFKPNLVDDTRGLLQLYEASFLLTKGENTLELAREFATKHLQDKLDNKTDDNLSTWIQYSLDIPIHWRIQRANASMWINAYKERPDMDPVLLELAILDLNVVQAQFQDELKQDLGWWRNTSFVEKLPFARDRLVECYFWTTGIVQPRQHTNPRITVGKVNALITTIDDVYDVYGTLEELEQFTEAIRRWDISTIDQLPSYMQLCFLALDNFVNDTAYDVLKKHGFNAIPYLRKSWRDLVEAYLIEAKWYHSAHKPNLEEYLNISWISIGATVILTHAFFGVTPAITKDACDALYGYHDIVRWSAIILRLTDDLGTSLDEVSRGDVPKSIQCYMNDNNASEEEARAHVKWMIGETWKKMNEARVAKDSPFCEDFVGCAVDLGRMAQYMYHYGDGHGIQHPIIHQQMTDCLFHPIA

SdL7H = molecular target: T6, SdL7H (Salvia dorisiana, UniProt A0A6G5RTT4); assay: GC-MS of perillyl alcohol in culture extract; assay type: cell-based; details: yeast co-expressing limonene synthase, 30 °C, 96 h; also N. benthamiana with SdLS
T6 construct: gene L7H; expressed in Saccharomyces cerevisiae (limonene-producing strain Sc-PftLS) from pTEF plasmid; also in Nicotiana benthamiana
T6 sequence (A0A6G5RTT4 1-494): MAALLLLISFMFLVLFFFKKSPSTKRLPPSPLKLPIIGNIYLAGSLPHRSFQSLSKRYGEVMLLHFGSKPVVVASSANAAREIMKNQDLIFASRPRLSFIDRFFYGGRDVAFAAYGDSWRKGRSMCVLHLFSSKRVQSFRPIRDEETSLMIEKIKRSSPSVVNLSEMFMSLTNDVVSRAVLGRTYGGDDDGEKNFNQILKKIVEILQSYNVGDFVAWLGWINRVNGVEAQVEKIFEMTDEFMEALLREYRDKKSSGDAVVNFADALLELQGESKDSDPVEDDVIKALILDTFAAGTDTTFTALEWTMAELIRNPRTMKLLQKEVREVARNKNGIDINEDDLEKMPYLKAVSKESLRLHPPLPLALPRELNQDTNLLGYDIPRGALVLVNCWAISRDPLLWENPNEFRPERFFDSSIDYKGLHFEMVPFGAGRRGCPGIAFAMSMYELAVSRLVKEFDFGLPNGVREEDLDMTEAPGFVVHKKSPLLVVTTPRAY

SdOMT9 = molecular target: T7, SdOMT9 (Salvia dorisiana, UniProt A0A6G5RTF7); assay: headspace GC-MS of methylperillate; details: N. benthamiana leaves co-infiltrated with perillic acid; minor activity
T7 construct: gene OMT9; transient expression in Nicotiana benthamiana leaves
T7 sequence (A0A6G5RTF7 1-344): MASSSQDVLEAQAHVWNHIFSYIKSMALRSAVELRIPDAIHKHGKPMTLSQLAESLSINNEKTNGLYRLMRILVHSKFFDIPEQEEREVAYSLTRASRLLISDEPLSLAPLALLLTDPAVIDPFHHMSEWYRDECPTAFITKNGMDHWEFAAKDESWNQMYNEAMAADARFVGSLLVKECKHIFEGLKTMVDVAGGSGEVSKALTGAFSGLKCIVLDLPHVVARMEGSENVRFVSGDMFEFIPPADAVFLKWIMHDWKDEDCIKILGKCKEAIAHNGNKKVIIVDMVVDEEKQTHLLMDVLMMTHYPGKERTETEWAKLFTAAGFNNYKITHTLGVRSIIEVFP

SdPAOMT = molecular target: T8, SdPAOMT (Salvia dorisiana, UniProt A0A6G5RV57); assay: GC-MS of methyl ester product; assay type: biochemical; details: E. coli cell-free extract; 1 mM substrate, 1.28 mM SAM (from stocks), Tris-HCl pH 7.0, room temperature, 1 h
T8 construct: gene PAOMT; full length, pCDF-duet, E. coli BL21(DE3) cell-free extract
T8 sequence (A0A6G5RV57 1-359): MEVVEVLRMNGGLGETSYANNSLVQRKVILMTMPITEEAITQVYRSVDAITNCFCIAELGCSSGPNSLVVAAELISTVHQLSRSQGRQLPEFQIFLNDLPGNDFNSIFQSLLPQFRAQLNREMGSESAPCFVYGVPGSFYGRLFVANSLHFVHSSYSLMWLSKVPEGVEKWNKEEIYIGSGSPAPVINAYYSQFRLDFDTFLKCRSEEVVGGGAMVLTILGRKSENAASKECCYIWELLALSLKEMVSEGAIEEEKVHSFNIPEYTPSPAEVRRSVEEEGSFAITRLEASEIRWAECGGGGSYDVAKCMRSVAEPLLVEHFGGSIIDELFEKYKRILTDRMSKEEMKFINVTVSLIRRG

SdOMT4 = molecular target: T9, SdOMT4 (Salvia dorisiana, UniProt A0A6G5RUB3); assay: headspace GC-MS of methylperillate; details: N. benthamiana leaves co-infiltrated with perillic acid; minor activity
T9 construct: gene OMT4; transient expression in Nicotiana benthamiana leaves
T9 sequence (A0A6G5RUB3 1-349): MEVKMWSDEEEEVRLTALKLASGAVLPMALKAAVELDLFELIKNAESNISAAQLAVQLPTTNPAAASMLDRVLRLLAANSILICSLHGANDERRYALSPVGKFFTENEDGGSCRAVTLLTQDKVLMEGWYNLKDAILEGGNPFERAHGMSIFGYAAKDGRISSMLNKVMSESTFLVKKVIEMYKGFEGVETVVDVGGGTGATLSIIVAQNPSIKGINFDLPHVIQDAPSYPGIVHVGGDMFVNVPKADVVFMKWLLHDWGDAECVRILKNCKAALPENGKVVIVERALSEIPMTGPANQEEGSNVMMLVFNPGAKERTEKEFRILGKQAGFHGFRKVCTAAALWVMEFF

SdPOHDH = molecular target: T10, SdPOHDH (Salvia dorisiana, UniProt A0A6G5RUH8); assay: LC-MS of perillyl aldehyde markers; details: N. benthamiana leaves infiltrated with 400 µM perillyl alcohol, 4 h
T10 construct: gene POHDH; transient expression in Nicotiana benthamiana leaves (pB7WG2)
T10 sequence (A0A6G5RUH8 1-370): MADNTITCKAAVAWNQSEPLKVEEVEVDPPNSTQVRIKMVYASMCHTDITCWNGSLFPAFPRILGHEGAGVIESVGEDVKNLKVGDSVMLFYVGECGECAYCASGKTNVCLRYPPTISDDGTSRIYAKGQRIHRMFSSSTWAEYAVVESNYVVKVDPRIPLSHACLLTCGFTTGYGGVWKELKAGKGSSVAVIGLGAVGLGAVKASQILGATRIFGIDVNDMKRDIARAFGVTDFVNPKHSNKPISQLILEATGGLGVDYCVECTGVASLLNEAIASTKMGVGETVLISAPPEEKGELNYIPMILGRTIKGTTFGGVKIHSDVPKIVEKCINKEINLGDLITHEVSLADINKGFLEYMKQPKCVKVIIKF

CC(C)=CCC/C(C)=C/COP(=O)(O)OP(=O)(O)O [geranyl diphosphate]
in vitro terpene synthase assay, GC-MS (SdSaS): a sabinene synthase SdSaS | in vitro terpene synthase assay, GC-MS (SdPCS): an α-pinene/camphene synthase SdPCS | in vitro terpene synthase assay, GC-MS (SdLiS): a linalool synthase SdLiS | in vitro terpene synthase assay, GC-MS (SdEuS): a eucalyptol synthase SdEuS | in vitro terpene synthase assay, GC-MS (SdPS): characterized by in vitro assays, including a β-pinene synthase SdPS

C=C(C)[C@@H]1CC=C(C)CC1 [limonene]
GC-MS of perillyl alcohol in culture extract (SdL7H): indicating that limonene is indeed used as a substrate

C=C(C)[C@@H]1CC=C(C(=O)O)CC1 [perillic acid]
headspace GC-MS of methylperillate (SdOMT9): only SdOMT4 and SdOMT9 showed minor MePA formation | GC-MS of methyl ester product (SdPAOMT): Cell-free extracts were tested with BA, SA, and PA as substrates, and SAM as methyl donor | headspace GC-MS of methylperillate (SdOMT4): only SdOMT4 and SdOMT9 showed minor MePA formation

C=C(C)[C@@H]1CC=C(CO)CC1 [perillyl alcohol]
LC-MS of perillyl aldehyde markers (SdPOHDH): SdPOHDH converted POH to PAldH

O=C(O)c1ccccc1O [salicylic acid]
GC-MS of methyl ester product (SdPAOMT): Methylated products were detected for all three substrates
